Where “and” joins values, the source holds several entries; their conditions need not be identical. Equal values may be shown once.
Experiments:
Assay type in all cases: in vivo
[1] = test system: fleas; assay: Flea repellent test, tapered-end filter paper article in concave surface (round-ended glass) tube
From the text: (§1) Two types of filter paper articles were constructed. Specifically, article with two blunt ends (herein after “blunt-end article”) and article with one tapered end and one blunt end (herein after “tapered-end article”), were constructed in accordance with the procedures depicted in FIG. 2, except minor modifications for the blunt-end article, in which each of the two filter paper stripes were not cut diagonally from one end, and therefore both ends remained blunt after the two filter paper stripes were adhered. Repellents test were then conducted using the respective articles so as to develop an improved system and/or method for screening a candidate insect pest-repellent.

[2] = test system: fleas; assay: Flea repellent test, blunt-end filter paper article in flat surface tube (inverted centrifuge tube); conditions: 20 fleas, counted after 30 min, tests #1-3
From the text: as §1

[3] = test system: fleas; assay: Screening of essential oils as flea-repellents, tapered-end article in round-ended tube, repellency (PR %); conditions: concentration of about 1% (wt %)
From the text: In another aspect, a method of screening a candidate insect pest-repellant using the article 100 of FIG. 1 is provided. Referring again to FIG. 2, during the operation of screening an effective insect pest-repellent, a few drops of a candidate insect pest-repellent solution and a control solution (e.g., a buffer or water) are respectively applied onto the two paper strips (i.e., the first and second paper strips (110, 120) respectively having the first and second tapered ends (111, 121)), and allowed them to spread evenly throughout the respective papers. The two paper strips (110, 120) are then let standing for a few minutes to dry. […] In one example, the entire set up (i.e., including the article 100, the tube 140 and the fleas) is let stand for at least 30 min, before the number of insect pests on respective paper strips (110, 120) are counted. Repellency (PR %) of the candidate insect pest-repellent is determined by the following equation, […]
The article was let stand for about 30 min until it was dried. […] After 30 min, the numbers of fleas on respective sides of the filtered paper article was then counted. Repellency (PR %) of each candidate essential oils was calculated in accordance with the following equation, […]

[4] = tapered end article + concave surface tube, 20 fleas, counted after 30 min, tests #1-3

CCO [75% Ethanol, ethanol]
repellent activity towards fleas ([1]; in words, from Table 1, compared with the two commercial flea repellents): no repellent activity
number of fleas on Control (untreated) side of the article [1, 4]: 9 and 11
number of fleas on Treated side of the article [1, 4]: 9 and 11 and 8
number of fleas in the Bottom of the tube [2]: 4 and 2 and 3
number of fleas on Control (untreated) side of the article [2]: 10 and 8 and 6
number of fleas on Treated side of the article [2]: 6 and 10 and 11

O=CC=Cc1ccccc1 [cinnamaldehyde]
repellency [3]: at least 97%
